One assay deals with Recombinant ROCK1 (Homo sapiens (Human), UniProt Q13464). Nature of the assay: Lance Ultra Kinase Assay, ROCK1 inhibition. It counts as biochemical. As to conditions: ATP at Km, 30 min pre-incubation, 1 h reaction.
A further assay deals with HepG2 cells. The experiment in a line: Cell-based phospholipidosis assay (LipidTOX Red). As to conditions: Homo sapiens, 24 h, LipidTOX Red dye. How it is done: HepG2 cells were dispensed into Collagen I-coated 96-well black wall/clear bottom assay plates at 5000 cells/90 μL/well.
The assay plates were then incubated at 37° C. for 24 h, […] of 8% paraformaldehyde (4% final) fixative solution containing 8 μg/ml Hoechst 33342 (4 ug/mL final) in DPBS was added to each well. After incubation at room temperature for 25 min, the assay plates were washed with DPBS. The assay plates were sealed and stored at 4° C. before imaging.
The fluorescence intensities (595 nm excitation, 615 nm emission for LipidTOX Red; 352 nm excitation, 461 nm emission for Hoechst 33342) were measured using an High Content Screening System (Operetta, PerkinElmer) with a 10×Fluor objective. […] Average intensities were subjected to Prism and EC50 were calculated.

The next assay deals with Recombinant ROCK2 (Homo sapiens (Human), UniProt O75116). The experiment in a line: Lance Ultra Kinase Assay, ROCK2 inhibition. It counts as biochemical. The following applies: ATP at Km, 30 min pre-incubation, 1 h reaction.
The next assay concerns pMLC2. Nature of the assay: Cellular PD assay, pMLC2 in PASMC (western blot). Format: cell-based. As to conditions: PASMC, 0.5 h; Human Pulmonary Artery Smooth Muscle Cells, 30 min incubation. The protocol: (§1) PASMC (Human Pulmonary Artery Smooth Muscle Cells) were grown in Smooth Muscle Cell Growth medium (Promocell #C-22162). The cells were resuspended at 3×10^5 cells per well in 6-well plate in Smooth Muscle Cell Growth medium (Promocell #C-22162) and incubated compound concentration range: (10000/1111/333/111/37/12.3/4.1/0.41/0 nM) for 30 min.
(§2) Cells were then placed on ice and washed with ice-cold PBS. Cell lysates were prepared with 2×SDS. Separate proteins by SDS-PAGE 2 hr, transfer of proteins form gel to membrane 90 min, Blocking the membrane with 5% milk 1 hr and incubation in primary antibody overnight at 4° C., Incubate the membrane in HRP-conjugated secondary antibody diluted in blocking buffer (1:2000) for 1 hour at room temperature. Detection using Amersham ECL plus western blotting detection system (LAS4000). The purified product was analysed by SDS PAGE and the amount of target protein calculated by gray scanning by Multi-Gauge V3.0 software.

The subject of another assay is pMYPT1. Nature of the assay: Cellular PD assay, pMYPT1 in PASMC (western blot). Format: cell-based. As to conditions: PASMC, 0.5 h; Human Pulmonary Artery Smooth Muscle Cells, 30 min incubation. The protocol: as §1, §2

Chain of Recombinant ROCK1 (Q13464 whole entry): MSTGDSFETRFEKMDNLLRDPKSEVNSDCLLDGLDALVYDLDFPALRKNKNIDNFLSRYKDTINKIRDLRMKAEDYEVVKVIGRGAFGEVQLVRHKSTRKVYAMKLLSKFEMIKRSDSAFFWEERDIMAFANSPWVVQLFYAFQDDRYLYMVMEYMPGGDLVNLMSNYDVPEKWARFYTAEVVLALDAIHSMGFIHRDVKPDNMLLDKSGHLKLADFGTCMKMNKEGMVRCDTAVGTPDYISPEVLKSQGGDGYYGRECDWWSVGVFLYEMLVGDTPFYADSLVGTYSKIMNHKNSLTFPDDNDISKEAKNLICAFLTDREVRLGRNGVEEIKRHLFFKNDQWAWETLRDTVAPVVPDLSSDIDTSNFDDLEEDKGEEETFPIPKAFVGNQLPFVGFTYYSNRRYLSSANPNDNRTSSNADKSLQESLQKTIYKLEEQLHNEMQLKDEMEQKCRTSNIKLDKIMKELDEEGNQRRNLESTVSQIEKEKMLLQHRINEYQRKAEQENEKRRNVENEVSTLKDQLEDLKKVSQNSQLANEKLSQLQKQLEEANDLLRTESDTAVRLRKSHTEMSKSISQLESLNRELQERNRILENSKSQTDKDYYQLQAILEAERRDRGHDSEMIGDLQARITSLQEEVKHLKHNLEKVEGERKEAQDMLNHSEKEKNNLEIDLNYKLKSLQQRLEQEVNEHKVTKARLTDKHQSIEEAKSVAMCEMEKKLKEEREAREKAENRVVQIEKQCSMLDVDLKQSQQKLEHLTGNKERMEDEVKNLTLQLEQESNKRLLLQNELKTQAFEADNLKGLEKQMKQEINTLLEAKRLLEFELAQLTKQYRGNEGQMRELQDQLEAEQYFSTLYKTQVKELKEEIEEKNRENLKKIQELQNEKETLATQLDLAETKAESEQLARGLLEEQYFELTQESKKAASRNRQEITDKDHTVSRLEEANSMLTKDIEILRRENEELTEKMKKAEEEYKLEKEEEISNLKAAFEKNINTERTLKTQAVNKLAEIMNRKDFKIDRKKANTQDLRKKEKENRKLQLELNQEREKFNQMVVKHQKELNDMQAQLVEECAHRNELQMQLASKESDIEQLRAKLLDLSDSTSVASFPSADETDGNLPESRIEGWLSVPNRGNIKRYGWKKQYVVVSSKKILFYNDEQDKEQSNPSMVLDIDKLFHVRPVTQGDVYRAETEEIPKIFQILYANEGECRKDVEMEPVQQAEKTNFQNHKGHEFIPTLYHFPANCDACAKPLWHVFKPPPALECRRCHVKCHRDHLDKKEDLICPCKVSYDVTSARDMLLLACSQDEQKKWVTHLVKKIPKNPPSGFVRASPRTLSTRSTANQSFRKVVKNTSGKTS
Chain of Recombinant ROCK2 (O75116 whole entry): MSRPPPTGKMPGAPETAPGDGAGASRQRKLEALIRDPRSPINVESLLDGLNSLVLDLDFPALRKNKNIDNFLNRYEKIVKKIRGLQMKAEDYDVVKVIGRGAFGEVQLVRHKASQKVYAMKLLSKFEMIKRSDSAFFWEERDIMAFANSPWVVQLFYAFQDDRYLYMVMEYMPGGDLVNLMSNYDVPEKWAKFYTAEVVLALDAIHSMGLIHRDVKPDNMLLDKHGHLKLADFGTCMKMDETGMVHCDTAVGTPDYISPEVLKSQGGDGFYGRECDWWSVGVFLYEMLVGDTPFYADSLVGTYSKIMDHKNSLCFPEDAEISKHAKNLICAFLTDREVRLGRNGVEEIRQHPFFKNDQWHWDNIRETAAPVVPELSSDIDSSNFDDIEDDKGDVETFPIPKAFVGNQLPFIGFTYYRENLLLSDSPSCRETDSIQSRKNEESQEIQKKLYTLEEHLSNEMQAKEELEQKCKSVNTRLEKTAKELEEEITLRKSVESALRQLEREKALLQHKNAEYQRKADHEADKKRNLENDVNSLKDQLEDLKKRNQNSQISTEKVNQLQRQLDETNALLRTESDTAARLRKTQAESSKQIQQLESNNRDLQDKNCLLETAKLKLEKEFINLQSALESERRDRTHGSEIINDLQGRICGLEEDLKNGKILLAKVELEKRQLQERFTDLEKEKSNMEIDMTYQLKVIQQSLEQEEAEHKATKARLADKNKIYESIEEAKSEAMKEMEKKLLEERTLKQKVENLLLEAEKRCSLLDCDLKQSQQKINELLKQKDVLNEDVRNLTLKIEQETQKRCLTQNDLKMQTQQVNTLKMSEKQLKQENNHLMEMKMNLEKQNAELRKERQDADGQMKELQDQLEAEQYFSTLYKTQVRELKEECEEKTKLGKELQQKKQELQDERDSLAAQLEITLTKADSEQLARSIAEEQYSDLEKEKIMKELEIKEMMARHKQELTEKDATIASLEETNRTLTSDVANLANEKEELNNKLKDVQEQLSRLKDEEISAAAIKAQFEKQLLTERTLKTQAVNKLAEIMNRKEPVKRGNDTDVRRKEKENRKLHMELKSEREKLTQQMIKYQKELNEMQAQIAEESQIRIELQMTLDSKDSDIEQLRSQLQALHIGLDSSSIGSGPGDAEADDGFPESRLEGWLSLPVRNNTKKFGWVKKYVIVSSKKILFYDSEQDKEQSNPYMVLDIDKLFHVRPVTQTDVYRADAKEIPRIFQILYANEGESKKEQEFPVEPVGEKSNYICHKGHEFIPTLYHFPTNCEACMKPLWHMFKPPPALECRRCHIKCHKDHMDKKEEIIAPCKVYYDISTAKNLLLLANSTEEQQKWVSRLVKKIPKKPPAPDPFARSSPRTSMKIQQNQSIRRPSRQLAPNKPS
Method for Recombinant ROCK1: The inhibition potency of compounds against these enzymes was assessed using Lance Ultra Kinase Assay. In brief, recombinant kinases were pre-incubated in the presence or absence of compound at room temperature for 30 minutes. The reaction was initiated by the addition of the ATP (Km) and substrate peptide which could be phosphorylated by kinases in the reaction. After 1 h incubation, the reaction was stopped by the addition of the detection reagent mix containing EDTA. The fluorescence was measured at 615 nm and 665 nm, respectively with excitation wavelength at 320 nm. The calculated signal ratio of 665 nm/615 nm is proportional to the kinase activity.

With `N#Cc1cccc(C(CN)C(=O)Nc2cccc3c(-c4cn[nH]c4)c[nH]c23)c1` (racemic) [Example 19, N-(3-(1H-pyrazol-4-yl)-1H-indol-7-yl)-3-amino-2-(3-cyanophenyl)propanamide], the half-maximal inhibitory concentration (IC50) amounted to 2.2 nM on Recombinant ROCK1 and 0.92 nM at Recombinant ROCK2. For the same compound, the 50% effective concentration (EC50) in the assay with HepG2 cells was > 50 µM.
In the case of `NCC(C(=O)Nc1cccc2c(-c3cn[nH]c3)c[nH]c12)c1cccnc1` (racemic) [Example 31, N-(3-(1H-pyrazol-4-yl)-1H-indol-7-yl)-3-amino-2-(pyridin-3-yl)propanamide], the values for the IC50 at Recombinant ROCK1, in the assay on pMLC2 and at Recombinant ROCK2 were 1.2 nM, 31 nM and 0.48 nM, respectively. In addition, the EC50 in the assay with HepG2 cells was > 50 µM.
Consider `CNC(=O)OCc1cccc(C(CN)C(=O)Nc2cccc3c(-c4cn[nH]c4)c[nH]c23)c1` (racemic) [Example 49, 3-(1-((3-(1H-pyrazol-4-yl)-1H-indol-7-yl)amino)-3-amino-1-oxopropan-2-yl)benzyl methylcarbamate], for which the values for the IC50 at Recombinant ROCK1 and on Recombinant ROCK2 were 0.86 nM and 0.65 nM, respectively. Moreover, the EC50 with HepG2 cells is > 200 µM.
The matching figures for `NCC(C(=O)Nc1cccc2c(-c3cn[nH]c3)c[nH]c12)c1ccc(C(N)=O)cc1` (racemic) [Example 74, 4-(1-((3-(1H-pyrazol-4-yl)-1H-indol-7-yl)amino)-3-amino-1-oxopropan-2-yl)benzamide]: 2 nM, 0.62 nM and > 200 µM.
Turning to `NCCN1CCN(C(C(=O)Nc2cccc3c(-c4cn[nH]c4)c[nH]c23)c2ccccc2)CC1` (racemic) [Example 105, 2-[4-(2-aminoethyl)piperazin-1-yl]-2-phenyl-N-[3-(1H-pyrazol-4-yl)-1H-indol-7-yl]acetamide], the concentration for half-maximal inhibition (IC50) on Recombinant ROCK1 came out at 0.42 nM; with pMLC2 it was 95 nM; at Recombinant ROCK2, 0.22 nM. In the assay with HepG2 cells, this compound showed a 50% effective concentration (EC50) of 23.6 µM.
Regarding `NCC(C(=O)Nc1cccc2c(-c3cn[nH]c3)c[nH]c12)c1ccc(CO)cc1` (single isomer, unassigned) [Example 3, N-(3-(1H-pyrazol-4-yl)-1H-indol-7-yl)-3-amino-2-(4-(hydroxymethyl)phenyl)propanamide], the IC50 was found to be 99 nM in the assay with pMYPT1, 0.33 nM at Recombinant ROCK1, 46 nM in the assay with pMLC2 and 0.17 nM on Recombinant ROCK2. The EC50 in the assay on HepG2 cells is > 200 µM.
The matching figures for `COc1cccc(C(CN)C(=O)Nc2cccc3c(-c4cn[nH]c4)c[nH]c23)c1` (single isomer, unassigned) [Example 18, N-(3-(1H-pyrazol-4-yl)-1H-indol-7-yl)-3-amino-2-(3-methoxyphenyl)propanamide]: 5.6 nM, 0.3 nM, 4.2 nM, 0.14 nM and 10.9 µM.
The like results for `N#Cc1cccc(C(CN)C(=O)Nc2cccc3c(-c4cn[nH]c4)c[nH]c23)c1` (single isomer, unassigned) [Example 20, N-(3-(1H-pyrazol-4-yl)-1H-indol-7-yl)-3-amino-2-(3-cyanophenyl)propanamide] were, in that order, 41 nM, 2.8 nM, 38 nM, 1.3 nM and > 200 µM.
Regarding `NCC(C(=O)Nc1cccc2c(-c3cn[nH]c3)c[nH]c12)C1CCOCC1` (single isomer, unassigned) [Example 26, N-(3-(1H-pyrazol-4-yl)-1H-indol-7-yl)-3-amino-2-(tetrahydro-2H-pyran-4-yl)propanamide], the half-inhibitory concentration (IC50) with pMYPT1 came out at 153 nM; at Recombinant ROCK1 it was 1.4 nM; in the assay with pMLC2 it was 85 nM; at Recombinant ROCK2 it was 0.96 nM. Moreover, the EC50 in the assay on HepG2 cells is > 200 µM.
The matching figures for `NCC(C(=O)Nc1cccc2c(-c3cn[nH]c3)c[nH]c12)c1cccnc1` (single isomer, unassigned) [Example 32, N-(3-(1H-pyrazol-4-yl)-1H-indol-7-yl)-3-amino-2-(pyridin-3-yl)propanamide]: 62 nM, 0.55 nM, 42 nM, 0.24 nM and > 200 µM.
In the case of `CN1CCN(CC(C(=O)Nc2cccc3c(-c4cn[nH]c4)c[nH]c23)c2ccccc2)CC1` (single isomer, unassigned) [Example 38, N-(3-(1H-pyrazol-4-yl)-1H-indol-7-yl)-3-(4-methylpiperazin-1-yl)-2-phenylpropanamide], the IC50 in the assay with pMYPT1 was 13 nM; at Recombinant ROCK1, 0.44 nM; in the assay with pMLC2, 8.2 nM; at Recombinant ROCK2, 0.26 nM. Further, the half-maximal effective concentration (EC50) in the assay on HepG2 cells came to 6.23 µM.
The matching figures for `N#Cc1ccc(C(CN)C(=O)Nc2cccc3c(-c4cn[nH]c4)c[nH]c23)cc1` (single isomer, unassigned) [Example 59, N-(3-(1H-pyrazol-4-yl)-1H-indol-7-yl)-3-amino-2-(4-cyanophenyl)propanamide]: 155 nM, 2.7 nM, 61 nM, 0.83 nM and > 66.6 µM.
Turning to `NCC(C(=O)Nc1cccc2c(-c3cn[nH]c3)c[nH]c12)c1ccc(CO)nc1` (single isomer, unassigned) [Example 60, N-(3-(1H-pyrazol-4-yl)-1H-indol-7-yl)-3-amino-2-(6-(hydroxymethyl)pyridin-3-yl)propanamide], the half-inhibitory concentration (IC50) at Recombinant ROCK1 turned out to be 2.3 nM; on Recombinant ROCK2, 0.7 nM. Also, in the assay with HepG2 cells, the EC50 is > 50 µM.
With `NC[C@@H](C(=O)Nc1cccc2c(-c3cn[nH]c3)c[nH]c12)c1ccc(COC(=O)CCCCCO[N+](=O)[O-])cc1` [Example 10, [4-[(1S)-1-(aminomethyl)-2-oxo-2-[[3-(1H-pyrazol-4-yl)-1H-indol-7-yl]amino]ethyl]phenyl]methyl 6-nitrooxyhexanoate], the values for the IC50 with pMYPT1, at Recombinant ROCK1 and in the assay on pMLC2 were 10 nM, 1.6 nM and 8.1 nM, respectively. Further, the concentration for a half-maximal effect (EC50) in the assay with HepG2 cells was > 66.6 µM.
With `COc1cccc([C@@H](N)C(=O)Nc2cccc3c(-c4cn[nH]c4)c[nH]c23)c1` [Example 42, (2R)-2-amino-2-(3-methoxyphenyl)-N-[3-(1H-pyrazol-4-yl)-1H-indol-7-yl]acetamide], the IC50 in the assay with pMYPT1 is 2.8 nM; at Recombinant ROCK1, 0.18 nM; with pMLC2, 3 nM; at Recombinant ROCK2, 0.1 nM. For the same compound, the EC50 in the assay with HepG2 cells is > 200 µM.
Take `NCC(C(=O)Nc1cccc2c(-c3cn[nH]c3)c[nH]c12)C1CCCOC1` (centres unmarked) [Example 91, 3-amino-2-(oxan-3-yl)-N-[3-(1H-pyrazol-4-yl)-1H-indol-7-yl]propanamide]: the concentration for half-maximal inhibition (IC50) came out at 1.2 nM on Recombinant ROCK1 and 0.75 nM at Recombinant ROCK2. In the assay with HepG2 cells, this compound displayed an EC50 of 24.4 µM.
As for `Cc1ccc(C(=O)OCc2ccc([C@@H](CN)C(=O)Nc3ccc4cnccc4c3)cc2)c(C)c1` [Netarsudil], the EC50 in the assay with HepG2 cells was found to be 0.89 µM.

For the origin of these results see patent US20250346616A1 (DIZAL (JIANGSU) PHARMACEUTICAL CO., LTD., priority 2022, published 2025).
